Measured values from ChEMBL document CHEMBL3885861, “Open TG-GATES”.

Organism: Rattus norvegicus
Assay: Open TG-GATES - Regimen: Single
Format: toxicity, organism-based, Sprague-Dawley
Parameters: regimen Single, gender Male, age 6 weeks
Details: in vivo, po, route gavage; for gamma-GTP / ALP / ALT / AST / BUN / CRE / DBIL / GLC / IP / K / LDH / Na / PL / RALB / TBIL / TC / TG / TP: tissue Plasma; for APTT / Bas / Eos / Fbg / Hb / Ht / Lym / MCHC / MCV / Mono / Neu / PT / Plat / RBC / Ret / WBC: tissue Blood; for KIDNEY_L / KIDNEY_R / KIDNEY_TOTAL: tissue Kidney; for LIVER: tissue Liver
[1] = 300 mg/kg, 24 h, dose level Low

Which results are given for `C#C[C@]1(O)CC[C@H]2[C@@H]3CCC4=Cc5oncc5C[C@]4(C)[C@H]3CC[C@@]21C` [DANAZOL]?
gamma-GTP (0 mg/kg, 24 h, dose level Control): 2.2 IU/L; TERMINAL_BW (300 mg/kg, 3 h, dose level Low): 219.6 g; APTT (300 mg/kg, 3 h, dose level Low): 23.3 s; Bas (300 mg/kg, 3 h, dose level Low): 0%; Eos (300 mg/kg, 3 h, dose level Low): 0.6%; Fbg (300 mg/kg, 3 h, dose level Low): 297.4 mg/dL; Hb (300 mg/kg, 3 h, dose level Low): 13.6 g/dL; Ht (300 mg/kg, 3 h, dose level Low): 40.9%; Lym (300 mg/kg, 3 h, dose level Low): 84.4%; MCHC (300 mg/kg, 3 h, dose level Low): 33.3%; MCV (300 mg/kg, 3 h, dose level Low): 62.6 fL; Mono (300 mg/kg, 3 h, dose level Low): 1.6%; Neu (300 mg/kg, 3 h, dose level Low): 12.6%; PT (300 mg/kg, 3 h, dose level Low): 15.8 s; Plat (300 mg/kg, 3 h, dose level Low): 102 x10_4/uL; RBC (300 mg/kg, 3 h, dose level Low): 654 x10_4/ul; Ret (300 mg/kg, 3 h, dose level Low): 7.2%; WBC (300 mg/kg, 3 h, dose level Low): 80 x10_2/uL; KIDNEY_L (300 mg/kg, 3 h, dose level Low): 0.9 g; KIDNEY_R (300 mg/kg, 3 h, dose level Low): 1 g; KIDNEY_TOTAL (300 mg/kg, 3 h, dose level Low): 1.9 g; LIVER (300 mg/kg, 3 h, dose level Low): 9.9 g; ALP (300 mg/kg, 3 h, dose level Low): 1338.8 IU/L; ALT (300 mg/kg, 3 h, dose level Low): 43.4 IU/L; AST (300 mg/kg, 3 h, dose level Low): 77.6 IU/L; BUN (300 mg/kg, 3 h, dose level Low): 15.4 mg/dL; CRE (300 mg/kg, 3 h, dose level Low): 0.2 mg/dL; DBIL (300 mg/kg, 3 h, dose level Low): 0 mg/dL; GLC (300 mg/kg, 3 h, dose level Low): 178.6 mg/dL; IP (300 mg/kg, 3 h, dose level Low): 8.2 mg/dL; K (300 mg/kg, 3 h, dose level Low): 4.3 meq/L; LDH (300 mg/kg, 3 h, dose level Low): 149 IU/L; Na (300 mg/kg, 3 h, dose level Low): 141.6 meq/L; PL (300 mg/kg, 3 h, dose level Low): 131.8 mg/dL; RALB (300 mg/kg, 3 h, dose level Low): 2.9 g/dL; TBIL (300 mg/kg, 3 h, dose level Low): 0.016 mg/dL; TC (300 mg/kg, 3 h, dose level Low): 68.4 mg/dL; TG (300 mg/kg, 3 h, dose level Low): 87 mg/dL; TP (300 mg/kg, 3 h, dose level Low): 5.5 g/dL; gamma-GTP (300 mg/kg, 3 h, dose level Low): 1.8 IU/L; APTT (300 mg/kg, 6 h, dose level Low): 23.9 s; Bas (300 mg/kg, 6 h, dose level Low): 0%; Eos (300 mg/kg, 6 h, dose level Low): 0.8%; Fbg (300 mg/kg, 6 h, dose level Low): 284.6 mg/dL; Hb (300 mg/kg, 6 h, dose level Low): 13 g/dL; Ht (300 mg/kg, 6 h, dose level Low): 40.1%; Lym (300 mg/kg, 6 h, dose level Low): 76.8%; MCHC (300 mg/kg, 6 h, dose level Low): 32.4%; MCV (300 mg/kg, 6 h, dose level Low): 63.6 fL; Mono (300 mg/kg, 6 h, dose level Low): 2.6%; Neu (300 mg/kg, 6 h, dose level Low): 18.8%; PT (300 mg/kg, 6 h, dose level Low): 16.7 s; Plat (300 mg/kg, 6 h, dose level Low): 120.1 x10_4/uL; RBC (300 mg/kg, 6 h, dose level Low): 631.8 x10_4/ul; Ret (300 mg/kg, 6 h, dose level Low): 7.6%; WBC (300 mg/kg, 6 h, dose level Low): 85.9 x10_2/uL; KIDNEY_L (300 mg/kg, 6 h, dose level Low): 0.9 g; KIDNEY_R (300 mg/kg, 6 h, dose level Low): 0.9 g; KIDNEY_TOTAL (300 mg/kg, 6 h, dose level Low): 1.9 g; LIVER (300 mg/kg, 6 h, dose level Low): 9 g; ALP (300 mg/kg, 6 h, dose level Low): 1332 IU/L; ALT (300 mg/kg, 6 h, dose level Low): 35.4 IU/L; AST (300 mg/kg, 6 h, dose level Low): 70.2 IU/L; BUN (300 mg/kg, 6 h, dose level Low): 10.2 mg/dL; CRE (300 mg/kg, 6 h, dose level Low): 0.2 mg/dL; DBIL (300 mg/kg, 6 h, dose level Low): 0.004 mg/dL; GLC (300 mg/kg, 6 h, dose level Low): 177.8 mg/dL; IP (300 mg/kg, 6 h, dose level Low): 9 mg/dL; K (300 mg/kg, 6 h, dose level Low): 4.3 meq/L; LDH (300 mg/kg, 6 h, dose level Low): 150.6 IU/L; Na (300 mg/kg, 6 h, dose level Low): 142.2 meq/L; PL (300 mg/kg, 6 h, dose level Low): 128.6 mg/dL; RALB (300 mg/kg, 6 h, dose level Low): 3 g/dL; TBIL (300 mg/kg, 6 h, dose level Low): 0.032 mg/dL; TC (300 mg/kg, 6 h, dose level Low): 64.2 mg/dL; TG (300 mg/kg, 6 h, dose level Low): 58 mg/dL; TP (300 mg/kg, 6 h, dose level Low): 5.3 g/dL; gamma-GTP (300 mg/kg, 6 h, dose level Low): 1.6 IU/L; TERMINAL_BW (300 mg/kg, 9 h, dose level Low): 214.6 g; APTT (300 mg/kg, 9 h, dose level Low): 22.8 s; Bas (300 mg/kg, 9 h, dose level Low): 0%; Eos (300 mg/kg, 9 h, dose level Low): 0.8%; Fbg (300 mg/kg, 9 h, dose level Low): 295.4 mg/dL; Hb (300 mg/kg, 9 h, dose level Low): 13 g/dL; Ht (300 mg/kg, 9 h, dose level Low): 39.6%; Lym (300 mg/kg, 9 h, dose level Low): 78.6%; MCHC (300 mg/kg, 9 h, dose level Low): 32.8%; MCV (300 mg/kg, 9 h, dose level Low): 61.1 fL; Mono (300 mg/kg, 9 h, dose level Low): 2.4%; Neu (300 mg/kg, 9 h, dose level Low): 17.8%; PT (300 mg/kg, 9 h, dose level Low): 16.7 s; Plat (300 mg/kg, 9 h, dose level Low): 117.4 x10_4/uL; RBC (300 mg/kg, 9 h, dose level Low): 650.2 x10_4/ul; Ret (300 mg/kg, 9 h, dose level Low): 7.4%; WBC (300 mg/kg, 9 h, dose level Low): 72.2 x10_2/uL; KIDNEY_L (300 mg/kg, 9 h, dose level Low): 1 g; KIDNEY_R (300 mg/kg, 9 h, dose level Low): 1 g; KIDNEY_TOTAL (300 mg/kg, 9 h, dose level Low): 2 g; LIVER (300 mg/kg, 9 h, dose level Low): 9.5 g; ALP (300 mg/kg, 9 h, dose level Low): 1341.8 IU/L; ALT (300 mg/kg, 9 h, dose level Low): 35.8 IU/L; AST (300 mg/kg, 9 h, dose level Low): 66.2 IU/L; BUN (300 mg/kg, 9 h, dose level Low): 10.8 mg/dL; CRE (300 mg/kg, 9 h, dose level Low): 0.1 mg/dL; DBIL (300 mg/kg, 9 h, dose level Low): 0.002 mg/dL; GLC (300 mg/kg, 9 h, dose level Low): 185.8 mg/dL; IP (300 mg/kg, 9 h, dose level Low): 9.8 mg/dL; K (300 mg/kg, 9 h, dose level Low): 4.3 meq/L; LDH (300 mg/kg, 9 h, dose level Low): 132 IU/L; Na (300 mg/kg, 9 h, dose level Low): 142.4 meq/L; PL (300 mg/kg, 9 h, dose level Low): 109.4 mg/dL; RALB (300 mg/kg, 9 h, dose level Low): 2.9 g/dL; TBIL (300 mg/kg, 9 h, dose level Low): 0.024 mg/dL; TC (300 mg/kg, 9 h, dose level Low): 54.2 mg/dL; TG (300 mg/kg, 9 h, dose level Low): 57.2 mg/dL; TP (300 mg/kg, 9 h, dose level Low): 5.3 g/dL; gamma-GTP (300 mg/kg, 9 h, dose level Low): 1.8 IU/L; TERMINAL_BW [1]: 226.8 g; APTT [1]: 23.3 s; Bas [1]: 0%; Eos [1]: 0.6%; Fbg [1]: 307.6 mg/dL; Hb [1]: 13.2 g/dL; Ht [1]: 40.1%; Lym [1]: 81.8%; MCHC [1]: 32.9%; MCV [1]: 62.6 fL; Mono [1]: 2.2%; Neu [1]: 14.6%; PT [1]: 17 s; Plat [1]: 116.4 x10_4/uL; RBC [1]: 639.6 x10_4/ul; Ret [1]: 7.3%; WBC [1]: 87.1 x10_2/uL; KIDNEY_L [1]: 1 g; KIDNEY_R [1]: 1.1 g; KIDNEY_TOTAL [1]: 2.1 g; LIVER [1]: 11.5 g; ALP [1]: 1893.6 IU/L; ALT [1]: 37.4 IU/L; AST [1]: 66.4 IU/L; BUN [1]: 15.8 mg/dL; CRE [1]: 0.2 mg/dL; DBIL [1]: 0 mg/dL; GLC [1]: 187.6 mg/dL; IP [1]: 7.2 mg/dL; K [1]: 4.3 meq/L; LDH [1]: 167 IU/L; Na [1]: 141.2 meq/L; PL [1]: 130 mg/dL; RALB [1]: 3.1 g/dL; TBIL [1]: 0.002 mg/dL; TC [1]: 48.2 mg/dL; TG [1]: 223.8 mg/dL; TP [1]: 5.6 g/dL; gamma-GTP [1]: 1.4 IU/L
